Values joined by “and” are separate entries in the source; they are usually repeats but may differ in a detail not shown here. Identical values can stand only once.
Target: T1, Gag-Pol polyprotein [489-587,G537V,H558K,V571A] (Human immunodeficiency virus, UniProt P12497, G537V/H558K/V571A)
T1 construct: 489-587
Experiment: Inhibiton Activity Assay
Protocol: The inhibition activity against HIV-1 PR and three mutants (G48V, V82F, V82A)were done in 96 well microtiter plate and were assayed. Wells that showed 50% inhibition of the enzyme activity were selected and diluted to 10nM and screened again.

Structure (SMILES) | IC50 | Ki
COc1ccc(S(=O)(=O)N(CC(C)C)C[C@@H](O)[C@H](Cc2ccccc2)n2cc(COC(=O)N[C@H]3c4ccccc4C[C@H]3O)nn2)cc1 [HIV-1 PR Inhibitor, compound 6] | 6 nM and 19 nM and 39 nM and 46 nM | –
COc1ccc(S(=O)(=O)N(CC(C)C)C[C@@H](O)[C@H](Cc2ccccc2)n2cc(CNC(=O)c3ccc(CNC(=O)OC(C)(C)C)cc3)nn2)cc1 [HIV-1 PR Inhibitor, compound 8] | 13 nM and 24 nM and 17 nM and 52 nM | 4 nM and 13 nM and 9.7 nM and 30 nM

Reference: BindingDB's records for doi:10.1002/cbic.200300724 (The Scripps Research Institute, 2003)
